From publication PMC8000395, “Effective Small Molecule Antibacterials from a Novel Anti-Protein Secretion Screen” (Microorganisms, 2021)
Several values for one entry are separate records, joined by “and”; a condition that tells them apart may be missing. Equal values may be shown once. Read-outs that look alike come from different tables or passages of the source.

Key:
Morganella morganii = assay: Antimicrobial activity test (growth, OD600); format: cell-based; conditions: read-out: Bacterial Viability (IC50)
[1] = system: PhoA secretion in E. coli strain BL21 (pLysS); assay: Luminescence-based HTS assay of in vivo PhoA secretion; format: cell-based; conditions: Escherichia coli, BL21, luminescence-based HTS assay, E. coli BL21; read-out: Inhibition of PhoA Secretion IC50, HTS
Streptococcus pneumoniae = assay: Antimicrobial activity test (growth, OD600); format: cell-based; conditions: read-out: Bacterial Viability (IC50)
[2] = system: Klebsiella pneumoniae ATCC 27799; assay: Antimicrobial activity test (growth, OD600); format: cell-based; conditions: ATCC27799, read-out: Bacterial Viability (IC50)
Shigella sonnei = assay: Antimicrobial activity test (growth, OD600); format: cell-based; conditions: read-out: Bacterial Viability (IC50)
Gram-positive bacteria = assay: Antimicrobial activity test, summary over Gram-positive bacteria; format: cell-based
E. coli BL21 = assay: Antimicrobial activity test (growth, OD600); format: cell-based; conditions: Escherichia coli, BL21, BL21; 20 h, 37 °C, OD600; read-out: Bacterial Viability IC50, E. coli BL21
[3] = system: Mycobacterium abscessus ATCC19977; assay: Antimicrobial activity test (growth, OD600); format: cell-based; conditions: Mycobacteroides abscessus, read-out: Bacterial Viability (IC50)
[4] = Turbidimetric kinetic aqueous solubility assay; format: physicochemical; conditions: kinetic from dmso stock
Description: The determination of the aqueous solubility of compounds in this assay is based on the principle of turbidimetry. Turbidimetric methods rely on the measurement of light scattering from precipitate in solution to determine the solubility. Precipitation is identified by an absorbance increase due to blockage of the light by the particles at the wavelength of 570 nm. Compounds, stored in matrix vials (Thermo Fisher) at a stock concentration of 30 mM or 10 mM in 100% Dimethyl sulfoxide (DMSO), were used to make a serial dilution (dose-response) in a 96-well v-bottom propylene plate (Greiner, 651201). Serial dilutions are made to perform the solubility assay; they were made row-wise and start with undiluted compound (30 mM or 10 mM) in the first well and were then 1 over 3 diluted further on. The serial dilutions were eight doses long and contain six compounds per plate maximal (rows B-G). Columns 1 and 12 were filled with 100% DMSO for control purposes. The dose-response plates were 200-times diluted in 300 µL Phosphate Buffered Saline (PBS; pH = 7–7.2 without Ca^2+/Mg^2+) (Gibco, 14190-144) by transferring 1.5 µL of serially diluted compound. […] Dilutions were made by diluting one 96-well plate in two 96-well, flat-bottom, polystyrene plates (Greiner, 655101). These plates were then incubated at room temperature for 1h. After 1h incubation, the plates were read on the envision (Perkin Elmer) at 570 nm.
The data of this assay is reported as “Soluble at” value for each compound. This “soluble at” value represents the concentration where the compound is still soluble and is the concentration before the first precipitated concentration. The first precipitated concentration is the concentration where the absorbance value is more than five standard deviations higher than the average background absorbance. The average background absorbance and the standard deviation are calculated on the 0.5% DMSO controls in columns 1 and 12.

[5] = system: Pseudomonas aeruginosa 3/88; assay: Antimicrobial activity test (growth, OD600); format: cell-based; conditions: read-out: Bacterial Viability (IC50)
[6] = system: E. coli BW25113::imp-2413+; assay: Antimicrobial activity test (growth, OD600); conditions: Escherichia coli, BW25113, read-out: Viability IC50, BW25113::imp-2413+
Salmonella typhimurium = assay: Antimicrobial activity test (growth, OD600); format: cell-based; conditions: Salmonella enterica, read-out: Bacterial Viability (IC50)
[7] = system: PhoA secretion in E. coli MC4100; assay: microbe, parasite or virus in culture; format: cell-based; conditions: Escherichia coli; PNPP colorimetric lab-scale assay; read-out: Inhibition of PhoA Secretion IC50, Lab-Scale
[8] = system: Gram-negative and Gram-positive bacteria; assay: Antimicrobial activity test, summary over Gram-negative and Gram-positive bacteria; format: cell-based; conditions: for Antibacterial character: 19 Gram-negative and Gram-positive species evaluated; for IC50: summary over species, read-out: Viability of Gram-negative and Gram-positive bacteria IC50 (range over species)
Proteus vulgaris = assay: Antimicrobial activity test (growth, OD600); format: cell-based; conditions: read-out: Bacterial Viability (IC50)
[9] = system: Staphylococcus aureus ATC6538P; assay: Antimicrobial activity test (growth, OD600); format: cell-based; conditions: Staphylococcus aureus ATC6538P; read-out: Bacterial Viability (IC50)
Haemophilus influenzae = assay: Antimicrobial activity test (growth, OD600); format: cell-based; conditions: read-out: Bacterial Viability (IC50)
Providencia stuartii = assay: Antimicrobial activity test (growth, OD600); format: cell-based; conditions: read-out: Bacterial Viability (IC50)
[10] = system: PhoA secretion in E. coli BW25113; assay: Lab-scale p-nitrophenyl PhoA secretion assay, BW25113; format: cell-based; conditions: Escherichia coli, read-out: PhoA secretion in vivo IC50, E. coli BW25113
E. coli MC4100 = assay: Antimicrobial activity test (growth, OD600); format: cell-based; conditions: Escherichia coli, MC4100; 20 h, 37 °C, OD600; read-out: Bacterial Viability IC50, E. coli MC4100
HEK293T cells = conditions: 24 h; for Toxicity of Mammalian Cells (HEK293T) LD50: human
Description: Hek293T cells were harvested and diluted obtaining a cell suspension with a concentration of 200,000 cells/mL in complete growth medium (DMEM, 4.5 g/L d-glucose, pyruvate 1 mM, 0.075% bicarbonate and 10% Fetal Bovine serum). Of this cell suspension, 50 µL (10,000/well) was seeded in a 384 well culture plate (white polystyrene, tissue culture treated) and incubated at 37 °C-5% CO2 for 4 h in a moisturized incubator, which enables the cells to adhere. After the incubation, small chemical compounds were diluted in medium and 10 µL of a compound solution was added onto the cells, ending up with the required compound concentration. The cells were incubated for 24 h at 37 °C-5% CO2 in a moisturized incubator where after × µL medium was removed to equalize the liquid levels within one plate ending up with ±25 µL/well. The amount of remaining cells/well was determined with ATPlite^TM 1step (Perkin Elmer) Adenosine TriPhosphate (ATP) monitoring system, which is based on firefly luciferase.
The cytotoxicity was calculated by subtracting RLU (relative light units) obtained from the cells incubated with a compound from the RLUs obtained from cells in the presence of the vehicle.
The cytotoxic effect of a test compound was determined as:
Percent cell death = [1−((RLU determined for sample with test compound present—1) divided by (RLU determined in the presence of vehicle—1))] * 100.

[11] = B. subtilis, S. aureus, E. faecalis, S. pneumoniae, M. abscessus, read-out: Viability of Gram-positive bacteria IC50 (range over species)
[12] = for 80% of strains, selection threshold, Figure 1B, read-out: Bactericidal activity Gram+ IC50
[13] = pH 7, aqueous buffer, turbidimetry 570 nm, PBS pH 7–7.2, 0.5% DMSO, 1 h, read-out: Aqueous Solubility (soluble at)
[14] = pH 7.1, aqueous buffer, selection threshold, Figure 1B, read-out: Solubility

SMILES | IC50 (Morganella morganii) [µM] | IC50 [1] [µM] | IC50 (Streptococcus pneumoniae) [µM] | IC50 [2] [µM] | IC50 (Shigella sonnei) [µM] | IC50 (Gram-positive bacteria; [11]) [µM] | IC50 (Gram-positive bacteria; [12]) [µM] | IC50 (E. coli BL21) [µM] | IC50 [3] [µM] | solubility at 1 h [4, 13] | solubility at 1 h [4, 14] [µM] | IC50 [5] [µM] | IC50 [6] [µM] | IC50 (Salmonella typhimurium) [µM] | IC50 [7] [µM] | Antibacterial character [8] | IC50 [8] [µM] | IC50 (Proteus vulgaris) [µM] | IC50 [9] [µM] | IC50 (Haemophilus influenzae) [µM] | other results
O=C(/C=C/c1csnn1)c1ccccc1Cl [HSI#01] | > 100 | 11.9 | 77.8 | 80 to 100 | > 100 | 7 to 38 | < 28 | > 100 | 33.8 | 50 µM and 12.5 µg/mL | > 15 | > 100 | 23.2 | > 100 | 12.5 | bacteriocidal | 1 to 37 | 80 to 100 | 14.8 | > 100 | IC50 (Providencia stuartii): > 100 µM; IC50 [10]: 8.13 µM; IC50 (E. coli MC4100): > 100 µM; Human cell toxicity LD50 (HEK293T cells): > 15 µM; Toxicity of Mammalian Cells (HEK293T) LD50 (HEK293T cells): 6.7 µM
O=C(/C=C/c1csnn1)c1cc(Cl)ccc1Cl [HSI#05] | > 100 | 35.2 | 29.7 | > 100 | > 100 | 7 to 38 | < 28 | > 100 | 17.9 | 4.8 µg/mL | > 15 | > 100 | 10.3 | > 100 | 7 | bacteriocidal | 1 to 37 | > 100 | 4.1 | > 100 | IC50 (Providencia stuartii): > 100 µM; IC50 [10]: 3.2 µM; IC50 (E. coli MC4100): > 100 µM; Human cell toxicity LD50 (HEK293T cells): > 15 µM; Toxicity of Mammalian Cells (HEK293T) LD50 (HEK293T cells): 6.7 µM
O=C(/C=C/c1csnn1)c1cccc2ccccc12 [HSI#10] | > 100 | 20 | 60.9 | > 100 | > 100 | 7 to 38 | < 28 | > 100 | 21.8 | 4.4 µg/mL | > 15 | > 100 | 12.2 | > 100 | 19.6 | bacteriocidal | 1 to 37 | > 100 | 7.8 | > 100 | IC50 (Providencia stuartii): > 100 µM; IC50 [10]: 24.9 µM; IC50 (E. coli MC4100): > 100 µM; Human cell toxicity LD50 (HEK293T cells): > 15 µM; Toxicity of Mammalian Cells (HEK293T) LD50 (HEK293T cells): 6.7 µM
